The results in this text go back to EP3628044B1, “PYRROLO[2,3-C]PYRIDINES AND RELATED ANALOGS AS LSD-1 INHIBITORS” (The Regents of The University of Michigan, priority 2017, dated 2018).

Structures are written as SMILES.

The target of the experiment is T1, Human recombinant LSD1 protein (Homo sapiens, UniProt O60341).
T1 construct: purchased Active Motif (Carlsbad, CA); host or cells: E. coli
The experiment is described as follows: LSD1 enzymatic activity assay (AlphaLISA, Biotin-H3K4Me peptide substrate). The format is biochemical. The following applies: 4 nM LSD1, 80 nM Biotin-H3K4Me peptide substrate, 1% DMSO, compounds tested as the TFA salt. The procedure: Human recombinant LSD1 protein expressed in E. coli cells was purchased from Active Motif (Carlsbad, CA). Biotin-labeled Histone H3K4Me peptide (residues 1-21 with Lys 4 monomethylated) substrate was purchased from Anaspec (Fremont, CA). Enzymatic activity was assessed using the AlphaLISA technology from Perkin Elmer Life Sciences (Waltham, MA). 2.5 µL of compound solution and 5 µL of LSD1 solutions in the assay buffer (50mM Tris, pH 9.0, 50mM NaCl with 0.01% Tween20 and 1mM DTT added right before the assay) were added into a white low volume 384 well microtiter plate. This mixture solution was incubated for 15 minutes with gentle shaking at room temperature. Demethylation reaction was initiated by adding 2.5 µL of Biotin-H3K4Me peptide substrate solution in the assay buffer. Final concentrations of LSD1, Biotin-H3K4Me peptide substrate, and DMSO were 4 nM, 80 nM, and 1%, respectively. […] Plates were read on a BMG CLARIOStar multimode plate reader from BMG Labtech (Ortenberg, Germany) with an excitation wavelength of 680 nm and emission wavelength of 615 nm. IC50 values of inhibitors were obtained by fitting the fluorescence intensity vs inhibitor concentrations in a sigmoidal dose-response curve (variable slope) with a non-linear regression using Prism 7 (La Jolla, CA). […]

For `CN(C)c1ccc(-c2ncc3c(ccn3CC3CCNCC3)c2-c2ccc(C#N)cc2)cc1` [compound 85, 4-(5-(4-(dimethylamino)phenyl)-1-(piperidin-4-ylmethyl)-1H-pyrrolo[2,3-c]pyridin-4-yl)benzonitrile], the IC50 is 23.1 nM.

As to `Cn1ncc2cc(-c3ncc4c(ccn4CC4CCNCC4)c3-c3ccc(C#N)cc3F)ccc21` [compound 89, 3-fluoro-4-(5-(1-methyl-1H-indazol-5-yl)-1-(piperidin-4-ylmethyl)-1H-pyrrolo[2,3-c]pyridin-4-yl)benzonitrile], the IC50 is […].
